Experimental data reported in patent publication US20070249677A1, “Treatment of Osteoarthritis and Dosing Regimen for Arzoxifene” (priority 2004, published 2007).

Assays:
[1] = test system: Hartley albino guinea pigs (spontaneous cartilage degeneration / osteoarthritis); assay: Guinea Pig Spontaneous Osteoarthritis Study; assay type: in vivo
From the text: Hartley albino guinea pigs undergo spontaneous cartilage degeneration, and they have been used as a convenient small animal model system to study osteoarthritis (OA) and have potential physiologic relevance to the OA that spontaneously develops in humans. Disease-related morphologic changes observed in the guinea pigs are similar to the histopathologic alternations in the joints of humans with OA. Other significant similarities between the OA in Hartley guinea pigs and that in humans are also known. Huebner, Collagenase 1 and Collagenase 3 Expression in a Guinea Pig Model of Osteoarthritis, 41 Arthritis Rheum. 877-890 no. 5(May 1998). The Hartley guinea pig spontaneous model can be used to study the effects of Arzoxifene on OA.
Hartley strain guinea pigs, approximately three month old males, are used for the study. (In one study, 5.5 month old males were used, as indicated by FIG. 8). The Hartley albino guinea pigs are provided ad lib access to food (Ca 1.1%, p 0.6%, Vitamin D 3400 IU/kg) and water. The guinea pigs are dosed subcutaneously with Arzoxifene at 0.03, 0.1, 0.3, and/or 0.5 mg/kg/d for about two to four months. The study generally includes 15 guinea pigs per treatment group, except for the baseline, which generally includes 10 guinea pigs. Urine and serum are to be collected at 0, 2, 4, 6, 12, and 16 weeks for biomarker evaluation. The right knee joints are harvested for histology and the left knee joint for surface osteoarthritis scoring.
The effects observed on OA lesion areas by quantitative image analyses are illustrated by the graph in FIG. 3. The Zones of the lesion in the knee joint are illustrated by FIG. 1. Osteoarthritis changes are further evaluated by histologically quantitative analyses on paraffin embedded sections. The severities of joint damage are assessed for the depth of chondrocyte lesion and loss of proteoglycan on a score 0-5 for increasing severity on each third of the cartilage surface (Animla molde of osteoarthritis, A. M. Bendele (J Musculoskel Neuron Interact 2001: 1: 363-376)). Osteophyte development also evaluated by measuring the size.

[2] = test system: ovariectomized Sprague-Dawley rats; assay: Intermittent Dosing Analysis of Arzoxifene in Ovariectomized Rats (Prevention Model), femur QCT; assay type: in vivo, rat; settings: Ovx rats, 1 mg/kg oral
Method: Arzoxifene will be administered using several different dosing intervals for 5 weeks to 6 month-old rats, one week after ovariectomy.
Live phase: A total of about 78 female Sprague-Dawley rats (Harlan Sprague Dawley Inc) are used for this study design. 72 of the rats are ovariectomized (Ovx) at 6 months of age and 6 rats are used as sham-ovariectomized controls. Rats were maintained on a 12 hour light/dark cycle at 22° C. with ad lib access to food (TD 89222 with 0.5% Ca and 0.4% P, Teklad, Madison, Wis.) and water. Sham and Ovx controls are orally administered a vehicle of 20% hydroxy propyl-β-cyclodextrin (Aldrich Chemical Co). Arzoxifene (1 mg/kg) treated rats are dosed daily, every other day (QOD), every third day (Q3D), weekly on Monday (QW), or twice a week on Monday and Friday (M/F), as indicated. Each group contains 6 animals/grp and the treatment duration is about 5 weeks.
Analyses: Intact femora are removed and cleaned of soft-tissue and preserved in 50% ethanol/saline at 4° C. Femora are centered with respect to the QCT gantry (Research M, Stratec). A coronal scout scan of the specimen is generated first in 2 Dimension (2D) and then femora are scanned to measure bone mineral density (BMD, mg/cc), bone mineral content (BMC, mg), and cross-sectional area (mm2).

[3] = test system: postmenopausal women with osteopenia; assay: OA biomarkers on a subset of samples from the Phase 2 osteopenia study; assay type: in vivo, human; settings: no selection for OA
Method: A Phase 2, multicenter, randomized, double-blind, placebo- and raloxifene-controlled study of arzoxifene enrolled 219 postmenopausal women with osteopenia (defined as bone mineral density [BMD] t-score at the lumbar spine and/or femoral neck >−2.5 and ≦−1). The study assessed the effects of arzoxifene compared with raloxifene HCl (60 mg/day) and placebo on biochemical markers of bone metabolism, cardiovascular disease risk markers, and on overall safety.
CTXII was not evaluated as the assay is validated for urine specimens, which were not available.

[4] = Half life of arzoxifene in human patients; assay type: in vivo
[5] = Half life of arzoxifene in laboratory animals; assay type: in vivo

half life [4]: longer than one day | half life [5]: consistent with a daily dosing regimen
SMILES: COc1ccc(-c2sc3cc(O)ccc3c2Oc2ccc(OCCN3CCCCC3)cc2)cc1 [arzoxifene]
OA progression based on OA surface area and osteophyte development ([1]; 0.5 mg/kg/d subcutaneous, one study (FIG. 8, 5.5 month old males)): did not have a statistical effect on OA progression | effect on preventing or slowing the progression of OA ([1]; Hartley guinea pigs, subcutaneous, about two to four months, OA lesion areas by image analysis (FIG. 3)): positive effect on preventing or slowing the progression of OA | OA progress: OA surface area and osteophyte development ([1]; lower doses tested (0.03, 0.1, 0.3 mg/kg/d subcutaneous), FIGS. 4-7): favorable effect on preventing or delaying the OA progress | loss of BMD, distal femur metaphysis by QCT ([2]; daily, about 5 weeks (FIG. 9)): prevented | loss of BMD, distal femur metaphysis by QCT ([2]; every other day (QOD), about 5 weeks (FIG. 9)): prevented | loss of BMD, distal femur metaphysis by QCT ([2]; every third day (Q3D), about 5 weeks (FIG. 9)): prevented | loss of BMD, distal femur metaphysis by QCT ([2]; twice a week Monday and Friday (M/F), about 5 weeks (FIG. 9)): prevented | loss of BMD, distal femur metaphysis by QCT ([2]; weekly on Monday (QW), about 5 weeks, QW BMD intermediate between Ovx and Sham and less than Sham (FIG. 9)): only partially efficacious | COMP biomarker difference between placebo and arzoxifene [3]: modest but significant biomarker differences | human cartilage glycoprotein-39 (YKL-40) biomarker difference between placebo and arzoxifene [3]: modest but significant biomarker differences
